# Source: US4782151A, “Polyprenyl compound and pharmaceutical use” (Eisai Co., Ltd., priority 1984, dated 1988)
# Legend:
# gastric acid secretion = assay: Gastric acid secretion inhibiting effect (pylorus-ligated rats, method of Shay); format: in vivo, Wistar strain male rats; conditions: for inhibition in vivo at 100 mg/kg: Rattus norvegicus, 100 mg/μg (so in the source), to the duodenum during pyloric ligation, 4 hours, vs control group
# Experimental: According to the method of H. Shay et a. described in Gastroenterology, Vol. 5, p. 43 (1945), Wistar strain male rats each weighing about 200 g were not given any diet for 24 hours, and their pyloric segments were ligated under etherization. After four hours, the stomachs were excised under deep etherization, and the contents of the stomachs were collected. After determination of the amount, the gastric juice was centrifuged at 3,000 rpm for 10 minutes and the supernatant liquid was titrated by neutralization (at a pH 7.0) with N/50-NaOH by means of an automatic titrator (TTA 81, Radiometer, Copenhagen) to determine the acidity. The amount of the acid which had been secreted for four hours was calculated from the volume of the gastric juice and the acidity. The results are represented in terms of % inhibition with respect to the control group. Each of the compounds tested was emulsified in a 25% decaglyn mixture (polyglycerin fatty acid ester), and 100 mg/μg (dose 0.2 ml/100 g weight) was administered to the duodenum during the ligation of the pyloric segment. In the control group, only the solvent was administered.
# Pyloric Ligation Ulcer = assay: Effect on Pyloric Ligation Ulcer; format: in vivo, Wistar strain male rats; parameters: key to Grade Index G.I. mean ± S.E.: ulcer grade 0–V by eye; larger = more ulcers, V = perforation
# Experimental: According to the method of Shay et al. described in Gastroenterology, Vol 5, p. 43 (1945), Wistar strain male rats each weighing about 300 g were not given any diet for 48 hours, and then their pyloric segments were ligated. After 15 hours, the abdomen of each of the rats was opened, and the stomach was excised. The stomach was cut open along the side of the greater curvature, and the ulcers developed on the fore-stomach were classified and evaluated with the naked eye into five stages. The larger ulcer index means the more ulcers and index V refers to an example of perforation. The medicines were evaluated by determining their mean ±standard error. […] Cimetidine and propantheline were selected as control medicines.
# (Note) In Table 2, Grade Index was evaluated on the basis of the size,
# number, and severity of ulcers.
# in vivo = conditions: mouse, po
# Ethanol-Induced Ulcer = assay: Effect on Ethanol-Induced Ulcer; format: in vivo, Wistar male rats
# Experimental: According to the method of Robert et al., 1 ml/rat of absolute ethanol was administered orally to each of Wistar male rats. After one hour, the stomach of each rat was excised, 10 ml of physiologically saline solution was injected into the stomach, and the stomach was soaked in 5% neutral formalin. Each stomach was cut open along the side of the greater curvature, and the ulcers developed on the glandular stomach were measured for their lengths and the total sum of the lengths was defined as ulcer index.
# Compound B, i.e. N-(2,6,10,14-tetramethyl-18-oxo-2,6,10,14-nonadecatetraenoyl)diethylamine,and compound F, i.e. N-(2,6,10,14-tetramethyl-18-oxo-2,6,10,14-nonadecatetraenoyl)pyrrolidine, were selected as test compounds and emulsified in 2.5% decaglyn mixture, and 12.5 to 100 mg/kg (dose volume 0.2 ml/100 g-weight) was administered orally 30 minutes before administration of ethanol.
# [1] = 100 mg/kg, 15 hours after pylorus ligation
# [2] = 100 mg/kg, N 4 (Compound B), N 10 (Cimetidine)
# [3] = 12.5 mg/kg orally 30 minutes before ethanol
# [4] = 25 mg/kg orally 30 minutes before ethanol
# [5] = 50 mg/kg orally 30 minutes before ethanol
# [6] = 100 mg/kg orally 30 minutes before ethanol
smiles,measurement,setting,value
CC(=O)CCC=C(C)CCC=C(C)CCC=C(C)CCC=C(C)C(=O)n1ccnc1 [Compound H],inhibition in vivo at 100 mg/kg,gastric acid secretion,49.1%
CCNC(=O)C(C)=CCCC(C)=CCCC(C)=CCCC(C)=CCCC(C)=O [Compound C],inhibition in vivo at 100 mg/kg,gastric acid secretion,63.2%
CC(=O)CCC=C(C)CCC=C(C)CCC=C(C)CCC=C(C)CNC(C)=O [Compound J],inhibition in vivo at 100 mg/kg,gastric acid secretion,53%
"CN/C(=N/CCSCc1nc[nH]c1C)NC#N [Cimetidine, reference compound]",Grade Index G.I. mean ± S.E.,Pyloric Ligation Ulcer; [1],3.3 ± 0.7
same,Grade Index 0 (number of animals),Pyloric Ligation Ulcer; [2],2
same,Grade Index I (number of animals),Pyloric Ligation Ulcer; [2],0
same,Grade Index II (number of animals),Pyloric Ligation Ulcer; [2],1
same,Grade Index III (number of animals),Pyloric Ligation Ulcer; [2],2
same,Grade Index IV (number of animals),Pyloric Ligation Ulcer; [2],0
same,Grade Index V (number of animals; perforation),Pyloric Ligation Ulcer; [2],5
"CC(=O)CCC=C(C)CCC=C(C)CCC=C(C)CCC=C(C)C(=O)N1CCCC1 [Compound F, N-(2,6,10,14-tetramethyl-18-oxo-2,6,10,14-nonadecatetraenoyl)pyrrolidine]",LD50,in vivo,> 5000 mg/kg
same,inhibition in vivo at 100 mg/kg,gastric acid secretion,76.1%
same,Inhibition (%) of ulcer index,Ethanol-Induced Ulcer; [3],63.2%
same,Ulcer Index Mean ± S.E. (mm),Ethanol-Induced Ulcer; [3],21.4 ± 8.2 mm
same,Inhibition (%) of ulcer index,Ethanol-Induced Ulcer; [4],94.8%
same,Ulcer Index Mean ± S.E. (mm),Ethanol-Induced Ulcer; [4],3.0 ± 1.9 mm
same,Inhibition (%) of ulcer index,Ethanol-Induced Ulcer; [5],85.7%
same,Ulcer Index Mean ± S.E. (mm),Ethanol-Induced Ulcer; [5],8.3 ± 3.4 mm
same,Inhibition (%) of ulcer index,Ethanol-Induced Ulcer; [6],97.1%
same,Ulcer Index Mean ± S.E. (mm),Ethanol-Induced Ulcer; [6],1.7 ± 0.9 mm
CCC(=O)NCC(C)=CCCC(C)=CCCC(C)=CCCC(C)=CCCC(C)=O [Compound K],inhibition in vivo at 100 mg/kg,gastric acid secretion,50.2%
"CC(C)[N+](C)(CCOC(=O)C1c2ccccc2Oc2ccccc21)C(C)C [Propantheline bromide, reference compound]",Grade Index 0 (number of animals),"Pyloric Ligation Ulcer; 30 mg/kg, N 10",8
same,Grade Index I (number of animals),"Pyloric Ligation Ulcer; 30 mg/kg, N 10",2
same,Grade Index II (number of animals),"Pyloric Ligation Ulcer; 30 mg/kg, N 10",0
same,Grade Index III (number of animals),"Pyloric Ligation Ulcer; 30 mg/kg, N 10",0
same,Grade Index IV (number of animals),"Pyloric Ligation Ulcer; 30 mg/kg, N 10",0
same,Grade Index V (number of animals; perforation),"Pyloric Ligation Ulcer; 30 mg/kg, N 10",0
same,Grade Index G.I. mean ± S.E.,"Pyloric Ligation Ulcer; 30 mg/kg, 15 hours after pylorus ligation",0.2 ± 0.1
CC(=O)CCC=C(C)CCC=C(C)CCC=C(C)CCC=C(C)C(=O)N(CCO)CCO [Compound E],inhibition in vivo at 100 mg/kg,gastric acid secretion,52.2%
CC(=O)CCC=C(C)CCC=C(C)CCC=C(C)CCC=C(C)C(=O)N1CCOCC1 [Compound A],inhibition in vivo at 100 mg/kg,gastric acid secretion,52.9%
CCN(CC(C)=CCCC(C)=CCCC(C)=CCCC(C)=CCCC(C)=O)C(C)=O [Compound L],inhibition in vivo at 100 mg/kg,gastric acid secretion,62.6%
"CCN(CC)C(=O)C(C)=CCCC(C)=CCCC(C)=CCCC(C)=CCCC(C)=O [Compound B, N-(2,6,10,14-tetramethyl-18-oxo-2,6,10,14-nonadecatetraenoyl)diethylamine]",Grade Index 0 (number of animals),"Pyloric Ligation Ulcer; 25 mg/kg, N 6",2
same,Grade Index I (number of animals),"Pyloric Ligation Ulcer; 25 mg/kg, N 6",1
same,Grade Index II (number of animals),"Pyloric Ligation Ulcer; 25 mg/kg, N 6",2
same,Grade Index III (number of animals),"Pyloric Ligation Ulcer; 25 mg/kg, N 6",0
same,Grade Index IV (number of animals),"Pyloric Ligation Ulcer; 25 mg/kg, N 6",0
same,Grade Index V (number of animals; perforation),"Pyloric Ligation Ulcer; 25 mg/kg, N 6",1
same,Grade Index G.I. mean ± S.E.,"Pyloric Ligation Ulcer; 25 mg/kg, to the duodenum during pylorus ligation, 15 hours",1.7 ± 0.7
same,Grade Index 0 (number of animals),"Pyloric Ligation Ulcer; 50 mg/kg, N 6",2
same,Grade Index I (number of animals),"Pyloric Ligation Ulcer; 50 mg/kg, N 6",3
same,Grade Index II (number of animals),"Pyloric Ligation Ulcer; 50 mg/kg, N 6",0
same,Grade Index III (number of animals),"Pyloric Ligation Ulcer; 50 mg/kg, N 6",0
same,Grade Index IV (number of animals),"Pyloric Ligation Ulcer; 50 mg/kg, N 6",0
same,Grade Index V (number of animals; perforation),"Pyloric Ligation Ulcer; 50 mg/kg, N 6",1
same,Grade Index G.I. mean ± S.E.,"Pyloric Ligation Ulcer; 50 mg/kg, to the duodenum during pylorus ligation, 15 hours",1.3 ± 0.8
same,Grade Index G.I. mean ± S.E.,Pyloric Ligation Ulcer; [1],0.0 ± 0.0
same,Grade Index 0 (number of animals),Pyloric Ligation Ulcer; [2],4
same,Grade Index I (number of animals),Pyloric Ligation Ulcer; [2],0
same,Grade Index II (number of animals),Pyloric Ligation Ulcer; [2],0
same,Grade Index III (number of animals),Pyloric Ligation Ulcer; [2],0
same,Grade Index IV (number of animals),Pyloric Ligation Ulcer; [2],0
same,Grade Index V (number of animals; perforation),Pyloric Ligation Ulcer; [2],0
same,Grade Index 0 (number of animals),"Pyloric Ligation Ulcer; 200 mg/kg, N 4",4
same,Grade Index I (number of animals),"Pyloric Ligation Ulcer; 200 mg/kg, N 4",0
same,Grade Index II (number of animals),"Pyloric Ligation Ulcer; 200 mg/kg, N 4",0
same,Grade Index III (number of animals),"Pyloric Ligation Ulcer; 200 mg/kg, N 4",0
same,Grade Index IV (number of animals),"Pyloric Ligation Ulcer; 200 mg/kg, N 4",0
same,Grade Index V (number of animals; perforation),"Pyloric Ligation Ulcer; 200 mg/kg, N 4",0
same,Grade Index G.I. mean ± S.E.,"Pyloric Ligation Ulcer; 200 mg/kg, to the duodenum during pylorus ligation, 15 hours",0.0 ± 0.0
same,inhibition in vivo at 100 mg/kg,gastric acid secretion,83.5%
same,action of inhibiting acid secretion (in words),"gastric acid secretion; rat, in vivo",powerful action of inhibiting acid secretion
same,Inhibition (%) of ulcer index,Ethanol-Induced Ulcer; [3],82.6%
same,Ulcer Index Mean ± S.E. (mm),Ethanol-Induced Ulcer; [3],10.1 ± 5.9 mm
same,Inhibition (%) of ulcer index,Ethanol-Induced Ulcer; [4],97.6%
same,Ulcer Index Mean ± S.E. (mm),Ethanol-Induced Ulcer; [4],1.4 ± 1.0 mm
same,Inhibition (%) of ulcer index,Ethanol-Induced Ulcer; [5],90.4%
same,Ulcer Index Mean ± S.E. (mm),Ethanol-Induced Ulcer; [5],5.6 ± 2.9 mm
same,Inhibition (%) of ulcer index,Ethanol-Induced Ulcer; [6],97.8%
same,Ulcer Index Mean ± S.E. (mm),Ethanol-Induced Ulcer; [6],1.3 ± 1.0 mm
CC(=O)CCC=C(C)CCC=C(C)CCC=C(C)CCC=C(C)C(=O)N(C)C [Compound D],LD50,in vivo,> 5000 mg/kg
same,inhibition in vivo at 100 mg/kg,gastric acid secretion,52.6%
CC(=O)CCC=C(C)CCC=C(C)CCC=C(C)CCC=C(C)C(=O)N1CC=CC1 [Compound I],inhibition in vivo at 100 mg/kg,gastric acid secretion,43.9%
CCOC(=O)C=C(C)CCC=C(C)CCC=C(C)CCC=C(C)C(=O)N(CC)CC [Compound M],inhibition in vivo at 100 mg/kg,gastric acid secretion,80.6%
